Test results: US20060166310A1, “Serotonin receptor” (Inpharmatica Ltd., priority 2002, published 2006)
One block for each compound: values may come before it.

How the values were obtained:
INPIONCH1 = target: T1, INPIONCH1 (Homo sapiens, UniProt Q401N2); assay: Whole cell patch-clamp of HEK293 cells transfected with INPIONCH1; type: cell-based; conditions: for activation of current on application: cells transfected with INPIONCH1
T1 construct: V5 (C); His (C); expressed in transfected cells; host or cells: HEK293
T1 sequence (Q401N2 2-412): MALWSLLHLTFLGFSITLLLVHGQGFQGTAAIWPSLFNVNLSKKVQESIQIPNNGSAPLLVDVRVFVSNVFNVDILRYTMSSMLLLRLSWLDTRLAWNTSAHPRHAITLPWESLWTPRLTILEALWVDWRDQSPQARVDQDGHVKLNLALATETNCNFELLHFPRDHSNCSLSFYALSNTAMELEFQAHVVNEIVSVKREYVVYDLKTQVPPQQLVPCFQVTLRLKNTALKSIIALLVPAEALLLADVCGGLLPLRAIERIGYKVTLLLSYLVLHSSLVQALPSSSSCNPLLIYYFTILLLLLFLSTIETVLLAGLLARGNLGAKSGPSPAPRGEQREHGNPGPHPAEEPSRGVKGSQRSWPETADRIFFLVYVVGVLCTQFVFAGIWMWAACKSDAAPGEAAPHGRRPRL
Text: Cells were clamped at −80 mV or −60 mV. Drugs were applied by pressure ejection from modified micropipettes.

HEK293 cells = conditions: 1 mM
Protocol: To overcome these difficulties, HEK293 cells were transfected with either INPIONCH1 or one of the two chimeras (IS67 or IS68) and subsequently placed under selection pressure. Following transfection, positively expressing cells were selected by treatment with 1 mM neomycin and only cells that grew under these conditions were used to determine the electrophysiological characteristics of the various expressed clones.

SMILES: CC(=O)OCC[N+](C)(C)C [acteylcholine]
activation of current on application (INPIONCH1): appeared not to activate current

SMILES: CN1CCCC1c1cccnc1 (stereo not shown) [nicotine]
activation of current on application (INPIONCH1): appeared not to activate current
effect on outward current recorded at positive potentials (INPIONCH1; in some cells): appeared to block outward current

SMILES: O=S(=O)([O-])[O-].[Zn+2] [zinc sulphate]
zinc activated current (INPIONCH1; zinc sulphate application): no consistent specific zinc activated current was observed
effect on amplitude of the current in response to 5-HT (INPIONCH1; zinc sulphate applied to the cells): appeared to reduce the amplitude
toxicity to the cells (HEK293 cells): appeared to be toxic

Second part, led by results:

current on application of 5-HT (INPIONCH1; 10 μM, HEK293 cells expressing INPIONCH1): inward current
reversal potential of 5-HT-induced current (INPIONCH1; voltage ramps -90 to +90 mV before and after 5-HT application): about 0 mV
induction of currents before and after application of zinc sulphate (INPIONCH1; zinc sulphate 1 mM): able to induce currents
SMILES: NCCc1c[nH]c2ccc(O)cc12 [5-HT, serotonin]
response following a second application (desensitisation) (INPIONCH1; second application of 5-HT, stated for 'the channels'): minimal or absent

effect on the 5-HT induced channel (INPIONCH1): no effect
effect on the leak channel (INPIONCH1): no effect
SMILES: COc1cc2c3cc1Oc1cc(ccc1O)C[C@@H]1c4c(cc(OC)c(O)c4Oc4ccc(cc4)C[C@@H]3N(C)CC2)CC[N+]1(C)C [Tubocurarine]

activation of current on application (INPIONCH1): appeared not to activate current
SMILES: NC[C@H](O)c1ccc(O)c(O)c1 [noradrenaline]
